Experimental data taken from US4251543A, “2-(p-Prenylphenyl)propionic acid” (priority 1978, dated 1981).

Tests used:
[1] = Changes of body weight, repeated oral administration; type: in vivo, rat (male Wister); settings: for body weight before treatment: before treatment (baseline); for body weight before treatment / body weight after 5 days / body weight after 10 days: mean ± S.E.; for body weight after 5 days / body weight after 10 days: orally
Experimental: (§1) The test compound was suspended in 0.4% CMC solution in an appropriate concentration, and was administered orally once a day at the definite dose (50, 100 or 200 mg/Kg) in each 10 male Wister rats. Additional 10 control rats were received an equivalent volume of the vehicle. […] In those tables, the values of body weight, red blood cell and hemoglobin are mean ± S.E.

[2] = tested on: red blood cell and hemoglobin; test: Hematological findings after 10 days administration; type: in vivo, rat (male Wister); settings: for hemoglobin / red blood cell: p.o., day one after 10 days administration, mean ± S.E.; for effect on hemoglobin count (in words) / effect on red blood cell count (in words): 50, 100 or 200 mg/Kg orally once a day, 10 days
Experimental: as §1

liver weight = test: Liver weight per 100 g of the test rat; type: in vivo, rat (male Wistar); settings: 100 + 200 mg/Kg, p.o., mean ± S.E.
Experimental: (§2) Anti-inflammatory activity was evaluated by the method of rat paw edema(Winter et al., J. Pharmacol. Exp. Ther., 141, 369(1963)). Six male Wistar strain rats were used in each group and a volume of the each paw was measured three hours after injection of carrageenin.
Immediately after the completion of the test described in Experiment 1, the test compound was orally administered to the test rats in a dose twice the dose administered in Experiment 1, and fasting was continued for 18 hours prior to autopsy and evaluation of gastric lesions and liver weight per 100 g of the test rat. The gastric lesions induced were expressed as incidence(number of rats with gastric lesions/number of the rats) and lesion index(sum of areas damaged). The results are shown in Table 3, wherein the values of lesion index and liver weight are mean ± S.E.

acetic acid writhing = test: Analgesic activity, acetic acid writhing test; type: in vivo, mouse (male ddY); settings: p.o.
From the text: Male ddY strain mice in groups of ten each were used for the evaluation of analgesic activity by acetic acid writhing test(Koster et al., Federation Proc., 18, 412(1959)).

gastric lesions = test: Gastric lesions after oral administration; type: in vivo, rat (male Wistar); settings: 100 + 200 mg/Kg, p.o.; for lesion index (sum of areas damaged): mean ± S.E.
Experimental: Anti-inflammatory activity was evaluated by the method of rat paw edema(Winter et al., J. Pharmacol. Exp. Ther., 141, 369(1963)). Six male Wistar strain rats were used in each group and a volume of the each paw was measured three hours after injection of carrageenin. […] The gastric lesions induced were expressed as incidence(number of rats with gastric lesions/number of the rats) and lesion index(sum of areas damaged). The results are shown in Table 3, wherein the values of lesion index and liver weight are mean ± S.E.

rat paw edema = test: Anti-inflammatory activity, rat paw edema (carrageenin); type: in vivo, rat (male Wistar); settings: p.o., three hours after injection of carrageenin
Experimental: as §2

| liver weight (liver weight) [g] | Structure (SMILES) | effect on hemoglobin count (in words) [2] | effect on red blood cell count (in words) [2] | inhibition (%) (acetic acid writhing; 50 mg/Kg) | inhibition (%) (acetic acid writhing; 100 mg/Kg) | inhibition (%) (acetic acid writhing; 200 mg/Kg) | lesion index (sum of areas damaged) (gastric lesions) [mm^2] | inhibition (%) (rat paw edema; 50 mg/Kg) | inhibition (%) (rat paw edema; 100 mg/Kg) | inhibition (%) (rat paw edema; 200 mg/Kg) | further results |
| --- | --- | --- | --- | --- | --- | --- | --- | --- | --- | --- | --- |
| 3.56 ± 0.04 | CC(C)=CCc1ccc(C(C)C(=O)O)cc1 (stereo not shown) [TA-060, 2-[p-(3-methyl-2-butenyl)phenyl]propionic acid] | no effect | no effect | 37.3 | 40.0 | 62.7 | 0 | 35.9 | 46.5 | 52.1 | body weight before treatment ([1]; 50 mg/Kg/day group): 211.5 ± 3.6 gram; body weight after 5 days ([1]; 50 mg/Kg/day): 224.6 ± 3.6 gram; body weight after 10 days ([1]; 50 mg/Kg/day): 239.7 ± 3.2 gram; body weight before treatment ([1]; 100 mg/Kg/day group): 210.0 ± 2.5 gram; body weight after 5 days ([1]; 100 mg/Kg/day): 226.4 ± 2.8 gram; body weight after 10 days ([1]; 100 mg/Kg/day): 238.5 ± 2.3 gram; body weight before treatment ([1]; 200 mg/Kg/day group): 211.7 ± 3.1 gram; body weight after 10 days ([1]; 200 mg/Kg/day, **p <0.001): 238.3 ± 5.1 gram; body weight after 5 days ([1]; 200 mg/Kg/day, *p <0.01): 221.9 ± 4.6 gram; effect on body weight gain (in words) ([1]; 50, 100 or 200 mg/Kg orally once a day, 10 days): no effect; hemoglobin ([2]; 50 mg/Kg): 15.2 ± 0.1 g/dL; red blood cell ([2]; 50 mg/Kg, *p <0.05): 864.2 ± 20.2 × 10^4 /mm^3; hemoglobin ([2]; 100 mg/Kg, ***p <0.001): 15.1 ± 0.2 g/dL; red blood cell ([2]; 100 mg/Kg, **p <0.01): 860.8 ± 9.5 × 10^4 /mm^3; hemoglobin ([2]; 200 mg/Kg, ***p <0.001): 15.0 ± 0.2 g/dL; red blood cell ([2]; 200 mg/Kg, **p <0.01): 857.9 ± 15.2 × 10^4 /mm^3; gastric lesion incidence (number of rats with gastric lesions/number of the rats) (gastric lesions; fasting 18 hours prior to autopsy): 0/12 |
|  | CC(C)Cc1ccc(C(C)C(=O)O)cc1 (stereo not shown) [ibuprofen, reference compound] | significant decrease | significant decrease | 18.6 | 37.5 | 53.8 |  | 37.9 | 49.5 | 52.9 |  |
| 4.23 ± 0.09 | CCCCC1C(=O)N(c2ccccc2)N(c2ccccc2)C1=O [phenylbutazone, reference compound] |  |  |  |  |  | 4.59 ± 1.35 |  |  |  |  |
